According to article PMC6897958, “Structural basis of ligand selectivity and disease mutations in cysteinyl leukotriene receptors” (Nature Communications, 2019):
“Also recorded” adds a separate entry of the source.

Tested on: HEK293 cells
Assay: Quantification of LTD4 degradation in IP1 assay (UPLC/MS)
Assay type: in vitro ADME
Settings: 10 µM LTD4 over HEK293 monolayer, 30 min, 37 °C, with or without L-Cys
Procedure: HEK293 cells were seeded in a 6-well plate at a density of 300,000 cells per well. Forty-eight hours after seeding, medium was removed, and cells were washed twice with PBS. […] After incubation, supernatant was filtered through a 0.22 µm PVDF filter and an internal standard was added before injection on UPLC/MS (Waters UPLC system coupled with a SQ detector 2 and a PDA eλ detector, using an Acquity UPLC BEH C18 column, 2.1 mm × 50 mm, 1.7 μm spherical size). UPLC chromatograms were recorded using the following gradient: water + 0.1% TFA and acetonitrile (0 → 0.2 min, 5% acetonitrile; 0.2 → 1.5 min, 5% → 95%; 1.5 → 1.8 min, 95%; 1.8 → 2.0 min, 95% → 5%; and 2.0 → 2.5 min, 5%). Quantification was done by determining the area under the curve (AUC) ratio of the tested compound over AUC of the internal standard. […] Quantification results are expressed as mean ± s.e.m. of three independent experiments.

CCCCC/C=C\C\C=C/C=C/C=C/[C@@H](SC[C@H](N)C(=O)NCC(=O)O)[C@@H](O)CCCC(=O)O [LTD4]
LTD4 conversion/degradation in functional assay: No LTD4 conversion was found; also recorded: No LTD4 degradation was observed
